# From patent publication US10787423B2, “Piperazine and piperidine derivatives, their synthesis and use thereof in inhibiting VDAC oligomerization, apoptosis and mitochondria dysfunction” (THE NATIONAL INSTITUTE FOR BIOTECHNOLOGY IN THE NEGEV LTD., priority 2015, dated 2020)
# Columns and labels:
# [1] = test system: HeLa cells; experiment: Selenite-induced cell death in HeLa cells, PI staining and flow cytometry; type: cell-based; details: 22 h with selenite 8 μM and increasing concentrations
# Description: Cells, e.g. HeLa cells (2×10^5), untreated or treated with apoptosis-inducing reagents, were analyzed for apoptotic cell death using PI, annexin V-FITC and flow cytometer analysis. Cells were collected (1500×g for 10 min), washed, and resuspended in 200 μl binding buffer (10 mM HEPES/NaOH, pH 7.4, 140 mM NaCl, and 2.5 mM CaCl2). Annexin V-FITC was added according to the recommended Protocol (Enzo Life Sciences, Switzerland), and the cells were incubated in the dark for 15 min. Cells were then washed with binding buffer and resuspended in 200 μl binding buffer, to which PI was added immediately before flow cytometry analysis. At least 10,000 events were collected, recorded on a dot plot, and analyzed by the FACSCalibur™ flow cytometer software (BD Biosciences, Franklin Lakes, N.J.).
# HeLa cells were incubated with varying concentrations (2-20 μM) of racemic compound of Formula 1 (VBIT-4) and of the enantiomers of compound of Formula 1 (VBIT-4-1 and VBIT-4-2) for 1 hour, and then with or without selenite (25 μM, 3 hours). Cells were harvested and assayed for apoptotic cell death, using PI staining and FACS analysis. The results shown in the FIG. 14b correspond to means±SD (n=3).
# Cells (2.5 mg/ml) were washed with and resuspended in PBS, pH 8.3 and incubated with membrane-permeable cross-linker EGS (250 μM) at 30° C. for 15 min and then subjected to SDS-PAGE and immunoblotting using anti-VDAC1 antibodies. Several anti-VDAC1 antibody-labeled protein bands were obtained upon exposure to the apoptosis stimuli that are correspond to VDAC1 dimers, trimers, tetramers and multimers. Cell death as induced by selenite and inhibited by the compound of Formula 3 (VBIT-12) or compound of Formula 11 (DIV00781) is shown (FIG. 21B), with closed circles corresponding to the compound of Formula 3 and open circles corresponding to the compound of Formula 11. Cell death was analyzed using propidium iodide (PI) staining and flow cytometry.
# [2] = target: T1, rVDAC1-GFP2 / rVDAC1-Rluc in T-REx-293 cells (Rattus norvegicus, UniProt Q9Z2L0); experiment: BRET2 assay of VDAC1 oligomerization induced by apoptosis inducers (Method A); type: cell-based; details: test compound 10 μM, 1 h pre-incubation; for BRET2, % of inhibition, As2O3: As2O3 60 μM (3 h); for BRET2, % of inhibition, STS: STS 1 μM (3 h); for BRET2, % of inhibition, Selenite: selenite 30 μM (3 h)
# T1 construct: The rVDAC1 gene was cloned into BamHI and HindIII sites of the BRET2 plasmids (N2 variants); expressed in transfected cells; host or cells: T-REx-293 cells stably expressing hVDAC1-shRNA (T-REx-pS10)
# T1 sequence (Q9Z2L0 with tags, fused parts or gaps limits assumed): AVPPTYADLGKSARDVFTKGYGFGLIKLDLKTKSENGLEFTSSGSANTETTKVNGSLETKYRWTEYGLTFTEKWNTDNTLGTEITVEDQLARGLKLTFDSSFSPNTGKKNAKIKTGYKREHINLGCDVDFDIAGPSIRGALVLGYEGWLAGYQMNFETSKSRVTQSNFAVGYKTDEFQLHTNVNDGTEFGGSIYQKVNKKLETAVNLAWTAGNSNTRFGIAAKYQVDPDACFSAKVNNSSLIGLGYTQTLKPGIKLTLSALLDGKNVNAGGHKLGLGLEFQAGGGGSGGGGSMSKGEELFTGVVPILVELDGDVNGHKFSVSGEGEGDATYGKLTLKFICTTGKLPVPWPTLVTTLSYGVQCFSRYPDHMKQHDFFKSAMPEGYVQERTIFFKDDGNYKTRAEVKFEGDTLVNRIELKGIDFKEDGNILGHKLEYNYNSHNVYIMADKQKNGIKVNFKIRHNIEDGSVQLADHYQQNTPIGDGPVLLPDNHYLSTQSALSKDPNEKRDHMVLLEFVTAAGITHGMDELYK
# Excerpt: BRET2 screening may be carried out as described in the art ([…] et al., (2010) Oligomerization of the mitochondrial protein voltage-dependent anion channel is coupled to the induction of apoptosis. Mol Cell Biol 30, 5698-5709). Plasmids encoding the fusion proteins rat(r)VDAC1-GFP2 and rVDAC1-luc were constructed using the BRET2 plasmids (Perkin Elmer, Waltham, Mass.). The rVDAC1 gene was cloned into BamHI and HindIII sites of the BRET2 plasmids (N2 variants) and amplified using the forward primer [NT] and the reverse primer [NT]. […] The cells were transfected using calcium phosphate method. Transfections were carried out with 0.2 μg of a plasmid coding for rVDAC1-Rluc and with 0.8 μg of a plasmid coding for rVDAC1-GFP2. As a negative control, cells were transfected with plasmids encoding for rVDAC1-Rluc (0.2 μg DNA) and GFP2 (0.8 μg). In another control (control cells), cells were also transfected with a plasmid encoding for rVDAC1-luc (0.2 μg) and plasmid pcDNA4/TO (0.8 μg). The BRET2 signal represents the ratio of the GFP2 fluorescence, measured at its emission wavelength (510 nm), over the light intensity (luminescence) emitted at 395 nm. All measurements were performed using the Infinite 200 ELISA reader (Tecan). BRET2 signals were defined as GFP2/Rluc intensity ratio and calculated as follows: DNA encoding fusion proteins rVDAC1-Rluc (in which RLuc was connected to rVDAC1 at the C terminal position through a linker (GGGS)) and rVDAC1-GFP2 (in which the GFP2 was fused to the rVDAC1 C terminus) was cloned into BRET2 vectors. rVDAC1-GFP2 and rVDAC1-Rluc were expressed in T-REx-293 cells stably expressing shRNA-hVDAC1 and a low level of endogenous hVDAC1 (referred to as T-REx-pS10 cells) hVDAC1-shRNA, being specific to human VDAC1, allowed the expression of rVDAC1 and decreased the participation of endogenous hVDAC1 in oligomerization, thereby enhancing the BRET2 signal. rVDAC1-GFP2 and rVDAC1-Rluc expression levels were correlated with the amount of plasmids used. […] Following incubation, cells were harvested using trypsin, washed twice with PBS by centrifugation at 1000×g, 5 min, resuspended in 200 μl of PBS and divided between two wells of a 96-well clear-bottom plate (Grenier). […] The screening was conducted using BRET2 assay as described above. […] After treatment, the medium was removed and assayed for BRET2 signals as described above. Liquid handling was done with the Tecan (Männedorf, Switzerland) Freedom 150 Robotic & MCA Liquid Handling System, while luciferase luminescence and fluorescence readings were obtained a robot-integrated Tecan Infinite M1000 reader. Method A was used for screening of VDAC1 oligomerization inhibitors. […] Table 2 provides a summary of BRET2-based screen results of the anti-VDAC1 oligomerization activity of compounds from the NCI library. Results are presented as percent inhibition of the BRET2 signal induced by the indicated pro-apoptotic agent.
smiles,measurement,setting,value
O=C(O)CN1CN(c2ccccc2)C2(CCN(Cc3cccc4ccccc34)CC2)C1=O [Formula 11],cell death as induced by selenite,[1],inhibited
CC#CC#Cc1cccc(=O)o1 [NSC 109292],"BRET2, % of inhibition, As2O3",[2],75.4%
same,"BRET2, % of inhibition, STS",[2],0%
same,"BRET2, % of inhibition, Selenite",[2],0%
COC(=NC(C)C)NC(C)C [NSC 672441],"BRET2, % of inhibition, As2O3",[2],69.6%
same,"BRET2, % of inhibition, STS",[2],0%
same,"BRET2, % of inhibition, Selenite",[2],41.8%
O=C(O)c1cccc2c1C(=O)c1cccc3snc-2c13 [NSC 39938],"BRET2, % of inhibition, As2O3",[2],48.7%
same,"BRET2, % of inhibition, STS",[2],0%
same,"BRET2, % of inhibition, Selenite",[2],18.8%
CCOc1ccc(/C=C2\CCc3ccccc3C2=O)cc1 [NSC 252172],"BRET2, % of inhibition, As2O3",[2],83.1%
same,"BRET2, % of inhibition, STS",[2],44.1%
same,"BRET2, % of inhibition, Selenite",[2],50%
O=C(Nc1ccc(C2=NCCN2)cc1)c1ccc(Cl)c(C(=O)Nc2ccc(C3=NCCN3)cc2)c1 [NSC 67436],"BRET2, % of inhibition, As2O3",[2],78.1%
same,"BRET2, % of inhibition, STS",[2],14.8%
same,"BRET2, % of inhibition, Selenite",[2],65.7%
CC(C)NC(=O)c1ccc(C(C)C)cc1 [NSC 20045],"BRET2, % of inhibition, As2O3",[2],88%
same,"BRET2, % of inhibition, STS",[2],0%
same,"BRET2, % of inhibition, Selenite",[2],77.4%
CN1[C@@H]2CC[C@H]1CC(OC(c1ccccc1)c1ccccc1)C2.CS(=O)(=O)O (stereo partly shown) [NSC 42199],"BRET2, % of inhibition, As2O3",[2],97%
same,"BRET2, % of inhibition, STS",[2],31%
same,"BRET2, % of inhibition, Selenite",[2],78.7%
Nc1ccc(C(=O)Nc2cccc(N)c2)cc1 [NSC 15362],"BRET2, % of inhibition, As2O3",[2],98%
same,"BRET2, % of inhibition, STS",[2],39.7%
same,"BRET2, % of inhibition, Selenite",[2],41%
CCN(CC)Cc1cc2[nH]c3c4ccc(Cl)cc4ncc3c2cc1OC [NSC 317605],"BRET2, % of inhibition, As2O3",[2],46%
same,"BRET2, % of inhibition, STS",[2],0.3%
same,"BRET2, % of inhibition, Selenite",[2],52%
O=P(O)(O)c1cc(-c2ccccc2)oc1-c1ccccc1 [NSC 43344],"BRET2, % of inhibition, As2O3",[2],80.7%
same,"BRET2, % of inhibition, STS",[2],23.8%
same,"BRET2, % of inhibition, Selenite",[2],50.1%
O=C(Nc1ccc(Cl)c([N+](=O)[O-])c1)Nc1nc2ccccc2s1 [NSC 329249],"BRET2, % of inhibition, As2O3",[2],82.8%
same,"BRET2, % of inhibition, STS",[2],12.1%
same,"BRET2, % of inhibition, Selenite",[2],22.4%
O=C(/C=C/c1ccccc1)NC(=S)Nc1ncccn1 [NSC 205968],"BRET2, % of inhibition, As2O3",[2],58.5%
same,"BRET2, % of inhibition, STS",[2],0%
same,"BRET2, % of inhibition, Selenite",[2],0%
O=C1CN2CCC1C/C2=C\c1ccnc2c(Cl)cccc12 (stereo not shown) [NSC 132868],"BRET2, % of inhibition, As2O3",[2],55.5%
same,"BRET2, % of inhibition, STS",[2],0%
same,"BRET2, % of inhibition, Selenite",[2],41.4%
O=c1c(-c2ccc(O)cc2)coc2cc(O)cc(O)c12 [NSC 36586],"BRET2, % of inhibition, As2O3",[2],49%
same,"BRET2, % of inhibition, STS",[2],0%
same,"BRET2, % of inhibition, Selenite",[2],0%
COc1ccc(C2OC3=C(Nc4cc(C)c(C)cc4N3)C2=O)cc1 (stereo not shown) [NSC 372275],"BRET2, % of inhibition, As2O3",[2],72.5%
same,"BRET2, % of inhibition, STS",[2],28.5%
same,"BRET2, % of inhibition, Selenite",[2],46.5%
CCN1CCc2ccccc2C1 [NSC 28837],"BRET2, % of inhibition, As2O3",[2],85.2%
same,"BRET2, % of inhibition, STS",[2],0.3%
same,"BRET2, % of inhibition, Selenite",[2],48.3%
Nc1nc(Nc2ccccc2)n[nH]1 [NSC 331208],"BRET2, % of inhibition, As2O3",[2],86.4%
same,"BRET2, % of inhibition, STS",[2],0%
same,"BRET2, % of inhibition, Selenite",[2],28.3%
Nc1nc(N)c(C=Nc2ccc(Br)cc2)c(Nc2ccc(Br)cc2)n1 [NSC 103520],"BRET2, % of inhibition, As2O3",[2],82.5%
same,"BRET2, % of inhibition, STS",[2],22.7%
same,"BRET2, % of inhibition, Selenite",[2],74%
CC(=O)N1C=Cc2c(c(C)c3c([nH]c4ccccc43)c2C)C1 [NSC 657149],"BRET2, % of inhibition, As2O3",[2],88.3%
same,"BRET2, % of inhibition, STS",[2],0%
same,"BRET2, % of inhibition, Selenite",[2],25.3%
CC(C)OC(=O)Nc1ccc(-c2ccc(NC(=O)OC(C)C)cc2Cl)c(Cl)c1 [NSC 43678],"BRET2, % of inhibition, As2O3",[2],95.1%
same,"BRET2, % of inhibition, STS",[2],34.6%
same,"BRET2, % of inhibition, Selenite",[2],78.3%
O=C(c1cccnc1)c1cc(-c2ccccn2)c(=O)n2ccccc12 [NSC 324623],"BRET2, % of inhibition, As2O3",[2],78%
same,"BRET2, % of inhibition, STS",[2],0%
same,"BRET2, % of inhibition, Selenite",[2],16.3%
CCOC(=O)c1[nH]c(CO)c(C(=O)OCC)c1C [NSC 10768],"BRET2, % of inhibition, As2O3",[2],52%
same,"BRET2, % of inhibition, STS",[2],0%
same,"BRET2, % of inhibition, Selenite",[2],9.6%
